As a reminder, the clearance is the rate of elimination divided by the concentration. Low values mean a low capacity for elimination, high ones a high capacity for elimination. One may read the Vd as a proportionality between amount in the body and measured concentration, not a real space. Low readings indicate little distribution into tissue, high ones wide distribution into tissue. As a reminder, the half-life is the time in which the quantity being followed falls by half. Read a high half-life as slow decline. As a reminder, the Cmax is the maximum level reached in the sampled fluid or tissue. As a reminder, the Tmax is the time at which the peak concentration occurs. By bioavailability is commonly meant the share of a dose that reaches the circulation, judged against a reference dose that is usually intravenous. Read a low bioavailability as poor availability. A word on the IC50: it is the midpoint of a concentration-inhibition curve. Low readings indicate greater potency in that assay, high ones weaker potency in that assay. As a reminder, the AUC(0-t) is exposure summed from dosing to a finite time, without extrapolation to infinity. A low value points to less exposure.

The structures appear in SMILES notation.

The nature of data set [1]: Clearance in CD rat at 5 mg/kg, iv by LC-MS/MS analysis. The class given is ADME, organism-based. On the set-up: dose 5 mg/kg, route intravenous. The following applies: in vivo.
Data set [2] in a line: Volume of distribution in CD rat at 5 mg/kg, iv by LC-MS/MS analysis. Also on record: dose 5 mg/kg, route intravenous. The class given is ADME, organism-based. The following applies: in vivo.
Data set [3] in a line: Half life in CD rat at 5 mg/kg, iv by LC-MS/MS analysis. The class given is ADME, organism-based. Also on record: dose 5 mg/kg, route intravenous. The following applies: in vivo.
Data set [4] has as its system Rattus norvegicus. Put plainly: Dose normalized AUC (0 to 24 hrs) in CD rat at 15 mg/kg, po by LC-MS/MS analysis. The class given is ADME, organism-based. On the set-up: time < 24 hr, dose 15 mg/kg, route oral. The conditions noted are these: in vivo.
Data set [5] can be described thus: (§1) Cmax in CD rat at 15 mg/kg, po by LC-MS/MS analysis. The class given is ADME, organism-based. Also on record: dose 15 mg/kg, route oral. The conditions noted are these: CD, in vivo.
The nature of data set [6]: Tmax in CD rat at 15 mg/kg, po by LC-MS/MS analysis. Also on record: dose 15 mg/kg, route oral. The class given is ADME, organism-based. The following applies: in vivo.
Data set [7] in a line: Half life in CD rat at 15 mg/kg, po by LC-MS/MS analysis. The class given is ADME, organism-based. Also on record: dose 15 mg/kg, route oral. The following applies: in vivo.
Data set [8] is described as follows: Oral bioavailability in CD rat at 15 mg/kg by LC-MS/MS analysis. The class given is ADME, organism-based. The following applies: in vivo.
Data set [9] has as its system BaF3. Put plainly: cells. The following applies: Mus musculus, BaF3, 72 h.
Description: Antiproliferative activity against mouse BA/F3 cells expressing wild type ABL after 3 days by MTS assay
For data set [10], the system named is BaF3. Put plainly: cells. The conditions noted are these: Mus musculus, BaF3, 72 h. The source holds these as a separate data set.
Description: Antiproliferative activity against mouse BA/F3 cells expressing ABL T315I mutant after 3 days by MTS assay
In data set [11] the test system is BaF3. Put plainly: cells. The conditions noted are these: Mus musculus, BaF3, 72 h. This is another data set of the same source.
Description: Antiproliferative activity against mouse BA/F3 cells after 3 days by MTS assay
In data set [12] the test system is BaF3. Briefly: cells. The following applies: Mus musculus, BaF3, 72 h. The source holds these as a separate data set.
Description: Antiproliferative activity against mouse BA/F3 cells expressing wild type ABL after 3 days by MTS assay in presence of 340 uM human serum albumin
The nature of data set [13]: Cmax in mouse at 30 mg/kg, po by LC-MS/MS analysis. The following applies: in vivo.
The nature of data set [14]: Half life in mouse at 30 mg/kg, po by LC-MS/MS analysis. The following applies: in vivo.
The nature of data set [15]: AUC (0 to 24 hrs) in mouse at 30 mg/kg, po by LC-MS/MS analysis. The conditions noted are these: plasma.
Data set [16] deals with Rattus norvegicus. The description is as §1. On the set-up: dose 15 mg/kg, route oral. The class given is ADME, organism-based. The conditions noted are these: in vivo, BLD = below limit of detection.
Another data set deals with K562. Put plainly: cells. The conditions noted are these: Homo sapiens, K562, 72 h.
Data set [17] has as its system Mus musculus. Put plainly: Plasma concentration in mouse at 30 mg/kg, po after 24 hrs by LC-MS/MS analysis.
Data set [18] has as its system Mus musculus. Put plainly: Plasma concentmouseion in CD mouse at 30 mg/kg, po after 2 hrs by LC-MS/MS analysis.
The test system of data set [19] is Mus musculus. Briefly: Plasma concentmouseion in CD mouse at 30 mg/kg, po after 6 hrs by LC-MS/MS analysis.

Description for K562: Antiproliferative activity against human K562 cells expressing wild type ABL after 3 days by MTS assay

`Cc1ccc(C(=O)Nc2ccc(CN3CCN(C)CC3)c(C(F)(F)F)c2)cc1C#Cc1cnc2ccccn12` gave a clearance in data set [1] of 12.5 mL/min/kg. In data set [2], this molecule displayed a Vd of 11 L/kg. For the same molecule, the half-life in data set [3] was 10.2 h; in data set [7], 24.7 h; in data set [14], 2.9 h. For the same molecule, the AUC in the data set on Rattus norvegicus [4] turned out to be 386.3 ng·h/mL/mg/kg. For the same molecule, the Cmax in data set [5] turned out to be 149 ng/mL; in data set [13], 986 ng/mL. Further, the time of peak concentration (Tmax) in data set [6] was determined as 6 h. This molecule yielded a bioavailability in data set [8] of 29%. Also, the IC50 in the data set with BaF3 [9] came to 3.6 nM; in the data set on BaF3 [10] it was 26 nM; in the data set with BaF3 [11] it was 1570 nM; in the data set with BaF3 [12], 5.9 nM. In addition, the AUC(0-t) at 24 h in [15] is 11300 ng·h/mL.
As for `Cc1ccc(C(=O)Nc2ccc(CN3CCN(C)CC3)c(C(F)(F)F)c2)cc1C#Cc1cnc2[nH]c(=O)[nH]c2c1`, the clearance in data set [1] is 40.7 mL/min/kg. For the same molecule, the Vd in [2] amounted to 17.7 L/kg. This molecule also had a half-life in data set [3] of 5 h. For the same molecule, the AUC entry with Rattus norvegicus [4] (BLD = below limit of detection) is recorded as “BLD”. Also, the Cmax result in the data set with Rattus norvegicus [16] is recorded as “BLD”. For the same molecule, the IC50 in the data set on BaF3 [9] came to 3.9 nM; in the data set with BaF3 [10] it was 31 nM; in the data set with BaF3 [11], 1860 nM.
Consider `Cc1cn(-c2cc(NC(=O)c3ccc(C)c(/C=C/n4cnc5c(N)ncnc54)c3)cc(C(F)(F)F)c2)cn1`, for which the results for the IC50 in the data set with BaF3 [10] and with K562 were 295 nM and 1.4 nM, respectively.
Take `CCN1CCN(Cc2ccc(NC(=O)c3ccc(C)c(C#Cc4cnc5cccnn45)c3)cc2C(F)(F)F)CC1`: in data set [1], the clearance was 17 mL/min/kg. In data set [2], this molecule showed a Vd of 13.1 L/kg. For the same molecule, the half-life in data set [3] was 8.9 h; in [7] it was 22.3 h. In addition, the AUC in the data set on Rattus norvegicus [4] is 518 ng·h/mL/mg/kg. In addition, the Cmax in data set [5] is 215 ng/mL. In addition, the Tmax in data set [6] is 6 h. Besides, the bioavailability in data set [8] is 53%. For the same molecule, the IC50 in the data set on BaF3 [9] was found to be 1 nM; with BaF3 [10], 7.3 nM; with BaF3 [11], 1160 nM. For the same molecule, the concentration at 24 h in the data set on Mus musculus [17] was 8.8 ng/mL. The molecule also displayed a concentration at 2 h in the data set with Mus musculus [18] of 622 ng/mL. Also, the concentration at 6 h with Mus musculus [19] was determined as 387 ng/mL.
As to `Cc1ccc(C(=O)Nc2cc(-n3ccnc3)cc(C(F)(F)F)c2)cc1C#Cc1cnc2ccccn12`, the clearance in data set [1] was 1.33 mL/min/kg. Also, the Vd in data set [2] was 1 L/kg. The half-life in data set [3] was 9.1 h; in data set [7], 21.6 h. Further, in the data set with Rattus norvegicus [4], the AUC worked out at 5745.9 ng·h/mL/mg/kg. This molecule had a Cmax in data set [5] of 2350 ng/mL. Further, in data set [6], the time to peak (Tmax) worked out at 6 h. In [8], the bioavailability was found to be 42.4%. The half-maximal inhibitory concentration (IC50) in the data set on BaF3 [9] came out at 8 nM; with BaF3 [10], 471 nM; in the data set with BaF3 [11], 9840 nM; in the data set on BaF3 [12], 51 nM.
For the molecule `CN1CCN(Cc2ccc(NC(=O)c3ccc(Cl)c(C#Cc4cnc5cccnn45)c3)cc2C(F)(F)F)CC1`, in data set [1], the clearance is 19.7 mL/min/kg. The distribution volume (Vd) in data set [2] amounted to 16.7 L/kg. In addition, the half-life in data set [3] was 9.9 h; in [7], 20.2 h; in data set [14] it was 2.9 h. The same molecule returned an AUC with Rattus norvegicus [4] of 673.8 ng·h/mL/mg/kg. The values for the Cmax in data set [5] and in data set [13] were 302 ng/mL and 441 ng/mL, respectively. In addition, the time of peak concentration (Tmax) in [6] stood at 6 h. The bioavailability in data set [8] was 79.2%. Moreover, the 50% inhibitory concentration (IC50) was 2.5 nM in the data set on BaF3 [9], 8.6 nM in the data set with BaF3 [10] and 1870 nM in the data set on BaF3 [11]. Further, in data set [15], the AUC(0-t) at 24 h is 6080 ng·h/mL.
In [1], `CN1CCN(Cc2ccc(NC(=O)c3ccc(F)c(C#Cc4cnc5cccnn45)c3)cc2C(F)(F)F)CC1` showed a clearance of 6.17 mL/min/kg. The Vd in data set [2] amounted to 3.1 L/kg. Further, the half-life in data set [3] is 5.9 h; in data set [7], 11.6 h. In the data set with Rattus norvegicus [4], this molecule registered an AUC of 1707.5 ng·h/mL/mg/kg. In data set [5], this molecule gave a peak concentration (Cmax) of 1180 ng/mL. Also, the time to peak (Tmax) in [6] is 6 h. This molecule yielded a bioavailability in [8] of 62.3%. For the same molecule, the IC50 in the data set with BaF3 [9] is 6.1 nM; in the data set with BaF3 [10], 35 nM; in the data set with BaF3 [11], 6290 nM. For the same molecule, in the data set with Mus musculus [17], the concentration at 24 h was found to be 163 ng/mL. Also, in the data set on Mus musculus [18], the concentration at 2 h amounted to 2480 ng/mL. The same molecule showed a concentration at 6 h with Mus musculus [19] of 2100 ng/mL.

For the origin of these results see ChEMBL document CHEMBL1177713, “Discovery of 3-[2-(imidazo[1,2-b]pyridazin-3-yl)ethynyl]-4-methyl-N-{4-[(4-methylpiperazin-1-yl)methyl]-3-(trifluoromethyl)phenyl}benzamide (AP24534), a potent, orally active pan-inhibitor of breakpoint cluster region-abelson (BCR-ABL) kinase including the T315I gatekeeper mutant” (J Med Chem, 2010).
